In the supplement of paper PMC11451515:

System: P12-Ichikawa
Assay: cell viability relative to DMSO control; higher = less cytotoxic
Details: 48 h
Outline: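 NOMO1 or SEM (500 cells/well) or P12-Ichikawa (1000 cells/well) leukemia cells were adapted for at least four passages in each medium. They were seeded in 1536-well plates (5 μl) and pin-dosed with library compounds in DMSO over an 11-point threefold series, 47 μM to 0.79 nM. CellTiter-Glo One luminescence was read after 48 h at 37°C. Viability is the per-plate percentage relative to DMSO wells, with cell-free wells as background.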

Compound: Nc1cc(N2CCCCC2)nc(N)[n+]1[O-]
- cell viability (HPLM + 10% dialyzed FBS, 0.000781 µM): 114%
- cell viability (HPLM + 10% dialyzed FBS, 0.00234 µM): 125%
- cell viability (HPLM + 10% dialyzed FBS, 0.00702 µM): 122%
- cell viability (HPLM + 10% dialyzed FBS, 0.0211 µM): 118%
- cell viability (HPLM + 10% dialyzed FBS, 0.0632 µM): 120%
- cell viability (HPLM + 10% dialyzed FBS, 0.19 µM): 127%
- cell viability (HPLM + 10% dialyzed FBS, 0.569 µM): 131%
- cell viability (HPLM + 10% dialyzed FBS, 1.71 µM): 125%
- cell viability (HPLM + 10% dialyzed FBS, 5.12 µM): 122%
- cell viability (HPLM + 10% dialyzed FBS, 15.4 µM): 119%
- cell viability (HPLM + 10% dialyzed FBS, 46.1 µM): 122%
- cell viability (RPMI 5 mM glucose + 10% FBS, 0.000781 µM): 125%
- cell viability (RPMI 5 mM glucose + 10% FBS, 0.00234 µM): 128%
- cell viability (RPMI 5 mM glucose + 10% FBS, 0.00702 µM): 121%
- cell viability (RPMI 5 mM glucose + 10% FBS, 0.0211 µM): 134%
- cell viability (RPMI 5 mM glucose + 10% FBS, 0.0632 µM): 127%
- cell viability (RPMI 5 mM glucose + 10% FBS, 0.19 µM): 123%
- cell viability (RPMI 5 mM glucose + 10% FBS, 0.569 µM): 131%
- cell viability (RPMI 5 mM glucose + 10% FBS, 1.71 µM): 127%
- cell viability (RPMI 5 mM glucose + 10% FBS, 5.12 µM): 131%
- cell viability (RPMI 5 mM glucose + 10% FBS, 15.4 µM): 134%
- cell viability (RPMI 5 mM glucose + 10% FBS, 46.1 µM): 127%
- cell viability (RPMI 5 mM glucose + 10% dialyzed FBS, 0.000781 µM): 113%
- cell viability (RPMI 5 mM glucose + 10% dialyzed FBS, 0.00234 µM): 124%
- cell viability (RPMI 5 mM glucose + 10% dialyzed FBS, 0.00702 µM): 111%
- cell viability (RPMI 5 mM glucose + 10% dialyzed FBS, 0.0211 µM): 125%
- cell viability (RPMI 5 mM glucose + 10% dialyzed FBS, 0.0632 µM): 121%
- cell viability (RPMI 5 mM glucose + 10% dialyzed FBS, 0.19 µM): 114%
- cell viability (RPMI 5 mM glucose + 10% dialyzed FBS, 0.569 µM): 125%
- cell viability (RPMI 5 mM glucose + 10% dialyzed FBS, 1.71 µM): 129%
- cell viability (RPMI 5 mM glucose + 10% dialyzed FBS, 5.12 µM): 121%
- cell viability (RPMI 5 mM glucose + 10% dialyzed FBS, 15.4 µM): 113%
- cell viability (RPMI 5 mM glucose + 10% dialyzed FBS, 46.1 µM): 117%
